Assay results: ChEMBL document CHEMBL5223124, “Recent applications of covalent chemistries in protein-protein interaction inhibitors” (RSC Med Chem, 2022)

target: Induced myeloid leukemia cell differentiation protein Mcl-1 (Homo sapiens, UniProt Q07820); assay: Inhibition of MCL-1 in human MOLP8 cells assessed as increase in caspase 3/7 activation; assay type: cell-based
Sequence (Q07820 whole entry): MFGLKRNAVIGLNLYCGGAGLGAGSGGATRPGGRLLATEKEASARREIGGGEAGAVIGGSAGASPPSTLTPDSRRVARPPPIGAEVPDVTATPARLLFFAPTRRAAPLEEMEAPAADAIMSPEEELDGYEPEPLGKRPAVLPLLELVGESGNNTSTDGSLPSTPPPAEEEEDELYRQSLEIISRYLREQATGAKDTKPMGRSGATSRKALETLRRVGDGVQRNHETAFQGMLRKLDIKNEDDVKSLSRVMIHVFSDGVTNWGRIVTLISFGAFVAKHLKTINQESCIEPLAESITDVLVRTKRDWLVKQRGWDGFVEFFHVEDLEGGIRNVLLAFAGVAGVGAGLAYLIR

**Q.** How did the EC50 turn out when `CC(=O)c1cccc(OCc2nn(C)c(C)c2-c2cccc3c(CCCOc4cccc5ccccc45)c(C(=O)O)[nH]c23)c1` was run?
**A.** 2700 nM

**Q.** `Cc1c(-c2cccc3c(CCCOc4cccc5ccccc45)c(C(=O)O)[nH]c23)c(COc2ccc(B(O)O)c(C=O)c2)nn1C` was tested. Which EC50 did it give?
**A.** 460 nM

**Q.** Which EC50 does the source give for `Cc1c(-c2cccc3c(CCCOc4cccc5ccccc45)c(C(=O)O)[nH]c23)c(COc2cccc(C=O)c2)nn1C` here?
**A.** > 11000 nM

**Q.** For `Cc1c(-c2cccc3c(CCCOc4cccc5ccccc45)c(C(=O)O)[nH]c23)c(COc2ccccc2)nn1C`, which EC50 is on record?
**A.** > 11000 nM

**Q.** With `CCc1nn(C)c(CC)c1-c1cccc2c(CCCOc3cccc4ccccc34)c(C(=O)O)n(CCN3CCOCC3)c12` as the compound, how does the EC50 read?
**A.** 340 nM

**Q.** Which EC50 does the source give for `Cc1c(-c2cccc3c(CCCOc4cccc5ccccc45)c(C(=O)O)[nH]c23)c(COc2ccc(B(O)O)cc2)nn1C` here?
**A.** > 11000 nM

**Q.** How did the EC50 turn out when `CC(=O)c1cc(OCc2nn(C)c(C)c2-c2cccc3c(CCCOc4cccc5ccccc45)c(C(=O)O)[nH]c23)ccc1B(O)O` was run?
**A.** 1170 nM

**Q.** `Cc1c(-c2cccc3c(CCCOc4cccc5ccccc45)c(C(=O)O)n(C)c23)c(COc2ccc(B(O)O)c(C=O)c2)nn1C` was tested. Which EC50 did it give?
**A.** 75 nM

target: E3 ubiquitin-protein ligase Mdm2 (Homo sapiens, UniProt Q00987); assay: Binding affinity to HDM2 (unknown origin)
Sequence (Q00987 whole entry): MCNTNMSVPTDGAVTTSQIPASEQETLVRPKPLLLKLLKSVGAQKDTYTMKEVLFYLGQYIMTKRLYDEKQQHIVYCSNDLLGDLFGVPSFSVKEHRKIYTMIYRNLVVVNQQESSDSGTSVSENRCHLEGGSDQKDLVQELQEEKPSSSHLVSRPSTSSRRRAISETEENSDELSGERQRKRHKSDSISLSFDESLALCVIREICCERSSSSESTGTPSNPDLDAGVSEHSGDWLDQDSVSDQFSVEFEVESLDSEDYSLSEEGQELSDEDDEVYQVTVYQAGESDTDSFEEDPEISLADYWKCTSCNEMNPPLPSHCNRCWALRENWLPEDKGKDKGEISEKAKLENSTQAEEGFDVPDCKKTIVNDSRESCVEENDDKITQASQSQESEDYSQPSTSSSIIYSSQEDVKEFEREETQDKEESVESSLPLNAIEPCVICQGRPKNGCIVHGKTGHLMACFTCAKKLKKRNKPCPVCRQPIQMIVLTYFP

**Q.** Which Kd does the source give for `COc1ccc(C2=NC(c3ccc(Cl)cc3)C(c3ccc(Cl)cc3)N2C(=O)N2CCN(C(=O)CCCNC(=O)CCCC(=O)N(CC#N)S(=O)(=O)c3ccccc3)CC2)c(OC(C)C)c1` (centres undefined) here?
**A.** 570 nM
